From US20140272041A1, “METHODS OF REDUCING PATHOGENS DURING PROCESSING OR POST-PROCESSING OF BEEF, POULTRY AND OTHER MEAT PRODUCTS” (BIRKO Corporation, priority 2009, published 2014)
Where “and” joins values, the source holds several entries; their conditions need not be identical. Equal values may be shown once.

How the values were obtained:
Type in all cases: cell-based, Escherichia coli
[1] = tested on: E. coli ATCC 43888 (O157:H7); assay: Log kill in aqueous bacterial suspension, plating on TSA; conditions: 73 deg. F.
E. coli ATCC 12435 = assay: Log kill / surviving titer in aqueous bacterial suspension, plating on TSA; conditions: for cfu per ml: no lactic acid (0.00 control 3.41E+07)
E. coli SAC-2 = assay: as above; conditions: for Log Kill […] Lactic Acid: 75 degrees F.; for Log Kill: sulfate; for cfu per ml: 75 deg. F. (0.00 control 4.18E+07)
Procedure: In each instance a target sample was employed using approximately 50 micro liters of an SAC-2 culture. E. coli “SAC-2,” was a Gram-negative strain isolated from municipal sewage. The tests were performed at room temperature, i.e., 75 deg. F. […] The results of each test sample were evaluated using a series of 10-fold dilutions as needed to determine, on a standard plating agar (TSA), the titer of bacteria that survived the antimicrobial treatment.
The same procedure was employed as in Example 2, but the only agent added to the target solution was Niaproof 08. No lactic acid was employed.
The mixture was then diluted and plated as previously described.
Increasing amounts of reagent were added to a series of test tubes. […] The bacterial titer of each mixture was determined by preparation and plating of serial dilutions on TSA.
[…] […] The amphoteric and zwitterionic surfactants, which carry a net positive charge under the conditions of the reaction mixture, caused enhancement of the log kill by lactic acid. All anionic surfactants tested caused substantial enhancement of the log kill by lactic acid.

E. coli ATCC 43888 = assay: Reaction mixture streak plate, visual observation; conditions: room temperature
Procedure: The tests were performed at room temperature.

[2] = Niaproof 08 0.02 wt./wt. % in 2.5 wt. % lactic acid
[3] = Niaproof 08 0.04 wt./wt. % in 2.5 wt. % lactic acid
[4] = Niaproof 08 0.06 wt./wt. % in 2.5 wt. % lactic acid
[5] = Niaproof 08 0.10 wt./wt. % in 2.5 wt. % lactic acid

## CCCCC(CC)COS(=O)(=O)[O-].[Na+] (centres unmarked) [Niaproof 08, sodium 2-ethylhexyl sulfate]
[1]; 2.5% lactic acid + Niaproof 08, pH 2.19, 20 secs.
  +Niaproof 08 (Log Kill): 5.75 log
[1]; 2.5% lactic acid + Niaproof 08, pH 2.42, 20 secs.
  +Niaproof 08 (Log Kill): 3.17 log
[1]; 2.5% lactic acid + Niaproof 08, pH 2.59, 20 secs.
  +Niaproof 08 (Log Kill): 3.81 log
[1]; 2.5% lactic acid + Niaproof 08, pH 2.74, 20 secs.
  +Niaproof 08 (Log Kill): 4.94 log
[1]; 2.5% lactic acid + Niaproof 08, pH 2.86, 20 secs.
  +Niaproof 08 (Log Kill): 5.01 log
[1]; 2.5% lactic acid + Niaproof 08, pH 3.24, 20 secs.
  +Niaproof 08 (Log Kill): 0 log
[1]; 2.5% lactic acid + Niaproof 08, pH 3.67, 20 secs.
  +Niaproof 08 (Log Kill): 0 log
E. coli ATCC 12435; 0.1% Niaproof 08 in 2.5% lactic acid, 15 seconds, 83 degrees F.
  Log Kill (Lactic Acid + Surfactant): 6.54 log
E. coli ATCC 12435; [2]
  Enhancement Factor: 1.52
  Log Kill: 3.469 log
E. coli ATCC 12435; [3]
  Enhancement Factor: 1.43
  Log Kill: 3.259 log
E. coli ATCC 12435; [4]
  Enhancement Factor: 2.79
  Log Kill: 6.367 log
E. coli ATCC 12435; [5]
  Enhancement Factor: 2.86
  Log Kill: 6.539 log
E. coli ATCC 12435; Niaproof 08 alone 0.02 % wt./wt.
  cfu per ml: 3.41E+07 cfu per ml
E. coli ATCC 12435; Niaproof 08 alone 0.06 % wt./wt.
  cfu per ml: 3.43E+07 cfu per ml
E. coli ATCC 12435; Niaproof 08 alone 0.14 % wt./wt.
  cfu per ml: 3.56E+07 cfu per ml
E. coli ATCC 12435; Niaproof 08 alone 0.20 % wt./wt.
  cfu per ml: 3.04E+07 cfu per ml
E. coli SAC-2; Niaproof 08 0.02 % wt./wt. in […] lactic acid, 15 seconds
  Log Kill […] Lactic Acid: 0.575 log
E. coli SAC-2; [2]
  Enhancement Factor (log10 kill with lactic acid and surfactant divided by log10 kill with lactic acid only): 2.37
E. coli SAC-2; Niaproof 08 0.02 wt./wt. % in 2.5 wt. % lactic acid, 15 seconds, room temperature
  Log Kill: 1.08 log and 1.080 log
E. coli SAC-2; Niaproof 08 0.04 % wt./wt. in […] lactic acid, 15 seconds
  Log Kill […] Lactic Acid: 1.060 log
E. coli SAC-2; [3]
  Enhancement Factor (log10 kill with lactic acid and surfactant divided by log10 kill with lactic acid only): 3.82
E. coli SAC-2; Niaproof 08 0.04 wt./wt. % in 2.5 wt. % lactic acid, 15 seconds, room temperature
  Log Kill: 1.74 log and 1.740 log
E. coli SAC-2; Niaproof 08 0.06 % wt./wt. in […] lactic acid, 15 seconds
  Log Kill […] Lactic Acid: 1.011 log
E. coli SAC-2; Niaproof 08 0.08 % wt./wt. in […] lactic acid, 15 seconds
  Log Kill […] Lactic Acid: 2.110 log
E. coli SAC-2; Niaproof 08 0.08 wt./wt. % in 2.5 wt. % lactic acid
  Enhancement Factor (log10 kill with lactic acid and surfactant divided by log10 kill with lactic acid only): 10.5
E. coli SAC-2; Niaproof 08 0.08 wt./wt. % in 2.5 wt. % lactic acid, 15 seconds, room temperature
  Log Kill: 4.8 log and 4.800 log
E. coli SAC-2; Niaproof 08 0.10 % wt./wt. in […] lactic acid, 15 seconds
  Log Kill […] Lactic Acid: 2.770 log
E. coli SAC-2; Niaproof 08 0.12 % wt./wt. in […] lactic acid, 15 seconds
  Log Kill […] Lactic Acid: 2.820 log
E. coli SAC-2; Niaproof 08 0.12 wt./wt. % in 2.5 wt. % lactic acid
  Enhancement Factor (log10 kill with lactic acid and surfactant divided by log10 kill with lactic acid only): 13.4
E. coli SAC-2; Niaproof 08 0.12 wt./wt. % in 2.5 wt. % lactic acid, 15 seconds, room temperature
  Log Kill: 6.1 log and 6.100 log
E. coli SAC-2; Niaproof 08 0.16 wt./wt. % in 2.5 wt. % lactic acid
  Enhancement Factor (log10 kill with lactic acid and surfactant divided by log10 kill with lactic acid only): 13.4
E. coli SAC-2; Niaproof 08 0.16 wt./wt. % in 2.5 wt. % lactic acid, 15 seconds, room temperature
  Log Kill: 6.1 log and 6.100 log
E. coli SAC-2; Niaproof 08 0.20 % wt./wt. in […] lactic acid, 15 seconds
  Log Kill […] Lactic Acid: 5.980 log
E. coli SAC-2; Niaproof 08 0.20 wt./wt. % in 2.5 wt. % lactic acid
  Enhancement Factor (log10 kill with lactic acid and surfactant divided by log10 kill with lactic acid only): 13.4
E. coli SAC-2; Niaproof 08 0.20 wt./wt. % in 2.5 wt. % lactic acid, 15 seconds, room temperature
  Log Kill: ~6 log and 6.1 log and 6.100 log
E. coli SAC-2; Niaproof 08 […] wt./wt. in […] lactic acid, 15 seconds
  Log Kill […] Lactic Acid: 5.980 log
E. coli SAC-2; Niaproof 08 above about 0.2 wt./wt. % in 2.5 wt. % lactic acid, 15 seconds, room temperature
  elimination of detectable E. coli: complete elimination of detectable E. coli
E. coli SAC-2; Niaproof 08 alone 0.02 % wt./wt., no lactic acid, 15 seconds
  cfu per ml: 4.05E+07 cfu per ml
E. coli SAC-2; Niaproof 08 alone 0.06 % wt./wt., no lactic acid, 15 seconds
  cfu per ml: 3.63E+07 cfu per ml
E. coli SAC-2; Niaproof 08 alone 0.14 % wt./wt., no lactic acid, 15 seconds
  cfu per ml: 4.25E+07 cfu per ml
E. coli SAC-2; Niaproof 08 alone 0.20 % wt./wt., no lactic acid, 15 seconds
  cfu per ml: 4.15E+07 cfu per ml
E. coli SAC-2; no lactic acid, up to 0.20 % wt./wt., 15 seconds
  antimicrobial effect of Niaproof 08 by itself: no antimicrobial effect
E. coli SAC-2; surfactant 0.2% in 2.5% lactic acid, 15 seconds, 74 to 80 degrees F.
  Log Kill (Lactic Acid + Surfactant): 4.08 log
E. coli ATCC 43888; Niaproof 08 0.02 % wt./wt. in 2.5 wt. % lactic acid
  Description/Observation: Extensive bacterial growth.
E. coli ATCC 43888; Niaproof 08 0.04 % wt./wt. in 2.5 wt. % lactic acid
  Description/Observation: No bacterial growth.
E. coli ATCC 43888; Niaproof 08 0.06 % wt./wt. in 2.5 wt. % lactic acid
  Description/Observation: No bacterial growth.
E. coli ATCC 43888; Niaproof 08 0.08 % wt./wt. in 2.5 wt. % lactic acid
  Description/Observation: No bacterial growth.
E. coli ATCC 43888; Niaproof 08 0.10 % wt./wt. in 2.5 wt. % lactic acid
  Description/Observation: No bacterial growth.
E. coli ATCC 43888; in 2.5 wt. % lactic acid
  concentration of surfactant at which all bacteria added were killed: ≥ 0.04%
